{
  "source": "patent US20190255019A1",
  "about": "“NOVEL DOSAGE REGIMEN” (Biogen MA Inc., priority 2016, published 2019)",
  "key": {"[1]": {"test_system": "rat model of inflammation", "assay": "Freud Complete Adjuvant induced inflammation model, mechanical hypersensitivity by weight bearing", "format": "in vivo", "method": "FIG. 1: PK modelling plots: For all doses, the CTrough is higher than efficacious doses in animal model of inflammation. […] FCA1, an oral dose of 1 mg/kg was the minimal effective dose in this model. TGN (trigeminal neuralgia), PLSR (painful lumbosacral radiculopathy).\nIn this model, inflammation was induced by intraplantar injection of Freud Complete Adjuvant.\nMechanical hypersensitivity was then assessed using weight bearing."}, "healthy participants": {"test_system": "healthy participants", "assay": "Phase 1 cross-over ambulatory blood pressure monitoring (ABPM) study, 300/400 mg BID", "format": "in vivo, human", "details": "for Observations with DBP: Change > 10 and absolute value > 80 mmHg / Observations with SBP: Change > 10 and absolute value > 130 mmHg: outpatient, number of observations (%)", "method": "This study reports the results of a Phase 1, randomized cross-over trial designed to assess inpatient and outpatient ambulatory blood pressure monitoring (ABPM) in healthy volunteers treated with the compound of Example 1 (BIIB074) for 36 days.\nThis was a Phase 1, randomized, double-blind, placebo-controlled, repeat dose, 2-period cross-over study to investigate the effect of BIIB074 300-400 mg bid on ambulatory blood pressure (ABP) in healthy participants (FIG. 2). The study comprised: screening (to occur a maximum of 30 days before the first baseline assessment); two 36-day treatment periods, each preceded by a baseline visit and separated by a 7-day washout (to minimize possible carry over effects); and a follow-up period of 7-14 days after last dose. Prior to this study, no females had received BIIB074; for this reason, a single dose BIIB074 session at the dose level of 400 mg was also conducted in female participants one week prior to the period 1 baseline visit. Following this session, some participants were predicted to exceed the predefined PK limit (area under the plasma concentration-time curve [AUC] 97 μg·h/mL) when receiving 400 mg bid at steady state. Therefore, in the subsequent phases of the study, all female participants received a lower dose of 300 mg bid (males received 400 mg bid).\nThe primary endpoint was change in 24 h average SBP and DBP from baseline to day 36 as determined by ABPM. Secondary outcome measures included: change in 24 h average SBP and DBP from baseline to days 4 and 15; change in average SBP and DBP within a 12 h dosing interval from baseline to days 14 and 35 (inpatient); change in 24 h average ambulatory heart rate from baseline to days 4, 15 and 36; proportion of participants whose 24 h SBP and DBP increased by <5, 5-9, 10-14, 15-19, and >20 mm Hg compared with baseline; PK parameters of BIIB074 following a single oral dose in healthy female participants, and following repeated oral doses given twice daily to healthy male and female participants; PK/pharmacodynamic (PD) analyses to examine the correlation between ABP and plasma levels and/or metrics of the systemic exposure of BIIB074.\nABP was collected over 24 hours on an outpatient basis at baseline and at days 4, 15 and 36, and over 12 hours on an inpatient basis at baseline, and at days 14 and 35. The ABPM device was placed on the non-dominant arm (except in clinical situations that prohibited measuring BP in the non-dominant arm). BP and heart rate were measured every 15 minutes.\nNon-inferiority was based on the one-sided 95% confidence interval (CI) for BIIB074-placebo excluding […] in SBP or DBP. It was planned to recruit approximately 60 participants in order to obtain a minimum of 48 evaluable for ABPM during the repeat dose phase, for at least 90% power, assuming a within-subject standard deviation (SDw) of 8.21 mmHg.\nABPM data were analyzed using a repeated measures mixed effects model, whereby fixed effects were treatment, day, treatment*day, period, average baseline*day, period adjusted baseline*day, sex and treatment*sex; random effect was subject; and repeated effect was day. All summary statistics were carried out using SAS 8.02 for UNIX running under the Harmonisation of Analysis and Reporting Program (HARP) environment. PK parameters were calculated by standard non-compartmental analysis according to working practices and using Wn Nonlin Pro v. 5.2."}, "[2]": {"assay": "150 mg TID dosage study, pharmacokinetics", "details": "both sexes, human, in vivo", "method": "A clinical trial was conducted to evaluate certain pharmacokinetic parameters of the compound of Example 1 when dosed at 150 mg TID for seven days. 15 young males and females aged 18 to 45 were scheduled to received ether the compound of Example 1 at 150 mg TID during a first period of 8 days followed by placebo during a second period of 8 days; or placebo during the first period and the compound of Example 1 during the second period."}, "rats": {"test_system": "rats", "assay": "Preclinical safety pharmacology, tyramine-induced hypertension", "format": "in vivo, rat", "details": "data not shown", "source_text": "The 36 day treatment duration in this study was rationally designed to determine whether tolerance developed for any potential effects of BIIB074 on SBP or DBP, since BP effects resolved by day 28 in the earlier phase 1 trial. The data from this study show a slight trend towards a decrease in the BP difference between BIIB074 and placebo between day 4 and day 35, although differences were minimal at all time points. […] Thus, the body of evidence, encompassing clinical and preclinical studies, supports safety and minimal effects of BIIB074 on BP/cardiovascular parameters."}, "[3]": {"assay": "Carbamazepine interaction study, BIIB074 steady-state PK", "format": "in vivo, human", "details": "for AUC / Cmax: human, in vivo; for AUC: read-out: AUC(0-tau) Adj Geo Mean; for Cmax: read-out: Cmax Adj Geo Mean", "method": "The interaction between BIIB074 and carbamazepine (CBZ) was investigated in a double-blind, randomized, placebo-controlled, 3-period, phase-1 study. Healthy subjects were randomized by sex to either CBZ (100 mg twice daily [BID] days 1-3, 200 mg BID days 4-21) or placebo (BID days 1-21). During days 16-21, subjects in both groups also received BIIB074 150 mg 3-times daily (TID). Thereafter, treatment with CBZ or placebo was discontinued, while dosing with BIIB074 was continued for another 7 days (days 22-28). The primary objective was to evaluate the effect of CBZ on BIIB074 steady-state PK; a secondary objective was to observe BIIB074 PK recovery following CBZ discontinuation."}, "[4]": {"details": "day 28, CBZ discontinued for 7 days"}, "[5]": {"details": "oral, 150 mg TID, day 28, Carbamazepine (Group 1), 7 days after CBZ discontinuation"}, "[6]": {"details": "oral, 150 mg TID, day 28, Placebo (Group 2)"}, "[7]": {"details": "oral, 150 mg, day 21, Carbamazepine (Group 1), BIIB074 150 mg TID"}, "[8]": {"details": "oral, 150 mg, day 21, Placebo (Group 2), BIIB074 150 mg TID"}},
  "note": "Where two headings read alike, the source gives them in different places.",
  "data": [
    {"smiles": "Cl.NC(=O)[C@@H]1CC[C@H](c2ccc(OCc3ccccc3F)cc2)N1", "note": "[Example 1, (5R)-5-(4-{[(2-Fluorophenyl)methyl]oxy}phenyl)-L-prolinamide hydrochloride]", "values": [
      {"measurement": "minimal effective dose", "setting": "[1]; oral", "result": 1, "unit": "mg/kg"},
      {"measurement": "effect on mechanical hypersensitivity", "setting": "[1]; oral 5 mg/kg", "result": "fully reversed the mechanical hypersensitivity"},
      {"measurement": "average increase of SBP over the 24 h interval", "setting": "healthy participants; PK/PD, inpatient ABPM", "result": "< 2", "unit": "mmHg"},
      {"measurement": "observations with DBP increase more than 10 mmHg and absolute value >80 mmHg", "setting": "healthy participants; day 36", "result": 6.9, "unit": "%"},
      {"measurement": "observations with SBP increase more than 10 mmHg and absolute value >130 mmHg", "setting": "healthy participants; day 36", "result": 5.0, "unit": "%"},
      {"measurement": "slight increase in change from baseline for SBP, DBP and heart rate", "setting": "healthy participants; inpatient ABPM, days 14 and 35", "result": "2.0-2.5 mmHg/bpm"},
      {"measurement": "observations in category increase from baseline SBP >30 mmHg", "setting": "healthy participants; outpatient 24 h, day 36, 4/1249 observations", "result": 0, "unit": "%"},
      {"measurement": "observations in category increase from baseline DBP >20 mmHg", "setting": "healthy participants; outpatient 24 h, day 36, 35/1249 observations", "result": 3, "unit": "%"},
      {"measurement": "Observations with DBP: Change > 10 and absolute value > 80 mmHg", "setting": "healthy participants; day 4, 300-400 mg repeat dose", "result": "137 (10.6%)"},
      {"measurement": "Observations with SBP: Change > 10 and absolute value > 130 mmHg", "setting": "healthy participants; day 4, 300-400 mg repeat dose", "result": "116 (9.0%)"},
      {"measurement": "Observations with DBP: Change > 10 and absolute value > 80 mmHg", "setting": "healthy participants; day 15, 300-400 mg repeat dose", "result": "109 (8.3%)"},
      {"measurement": "Observations with SBP: Change > 10 and absolute value > 130 mmHg", "setting": "healthy participants; day 15, 300-400 mg repeat dose", "result": "95 (7.2%)"},
      {"measurement": "Observations with DBP: Change > 10 and absolute value > 80 mmHg", "setting": "healthy participants; day 36, 300-400 mg repeat dose", "result": "86 (6.9%)"},
      {"measurement": "Observations with SBP: Change > 10 and absolute value > 130 mmHg", "setting": "healthy participants; day 36, 300-400 mg repeat dose", "result": "63 (5.0%)"},
      {"measurement": "overall change in SBP and DBP, outpatient and inpatient ABPM", "setting": "healthy participants; repeat doses for 36 days", "result": "lack of clinically relevant change in SBP and DBP"},
      {"measurement": "Cmax", "setting": "[2]; day 8", "result": 2710, "unit": "ng/mL"},
      {"measurement": "AUC(0-t)", "setting": "[2]; day 8, read-out: AUC0-8", "result": 15300, "unit": "ng·h/mL"},
      {"measurement": "effects on tyramine-induced hypertension", "setting": "rats", "result": "no effects on tyramine-induced hypertension in rats"},
      {"measurement": "tolerability when co-administered with CBZ", "setting": "[3]; 150 mg TID", "result": "appeared well tolerated"},
      {"measurement": "AUC(0-tau) Ratio (%) Group 1/Group 2", "setting": "[3]; day 21", "result": 68.4, "unit": "%"},
      {"measurement": "Cmax Ratio (%) Group 1/Group 2", "setting": "[3]; day 21", "result": 73.7, "unit": "%"},
      {"measurement": "reduction of AUC(0-tau) by CBZ co-administration vs placebo", "setting": "[3]; day 21", "result": "~31.6", "unit": "%"},
      {"measurement": "reduction of Cmax by CBZ co-administration vs placebo", "setting": "[3]; day 21", "result": "~26.3", "unit": "%"},
      {"measurement": "AUC(0-tau) Ratio (%) Group 1/Group 2", "setting": "[3]; day 28", "result": 75.5, "unit": "%"},
      {"measurement": "Cmax Ratio (%) Group 1/Group 2", "setting": "[3]; day 28", "result": 78.6, "unit": "%"},
      {"measurement": "AUC(0-tau) lower than in the placebo group", "setting": "[3]; [4]", "result": "~24.5", "unit": "%"},
      {"measurement": "Cmax lower than in the placebo group", "setting": "[3]; [4]", "result": "~21.4", "unit": "%"},
      {"measurement": "AUC", "setting": "[3]; [5]", "result": 12100, "unit": "ng·h/mL"},
      {"measurement": "Cmax", "setting": "[3]; [5]", "result": 2150, "unit": "ng/mL"},
      {"measurement": "AUC", "setting": "[3]; [6]", "result": 16000, "unit": "ng·h/mL"},
      {"measurement": "Cmax", "setting": "[3]; [6]", "result": 2730, "unit": "ng/mL"},
      {"measurement": "AUC", "setting": "[3]; [7]", "result": 12000, "unit": "ng·h/mL"},
      {"measurement": "Cmax", "setting": "[3]; [7]", "result": 2160, "unit": "ng/mL"},
      {"measurement": "AUC", "setting": "[3]; [8]", "result": 17500, "unit": "ng·h/mL"},
      {"measurement": "Cmax", "setting": "[3]; [8]", "result": 2930, "unit": "ng/mL"},
      {"measurement": "median time to maximum concentration", "setting": "[3]; oral, with CBZ or placebo, postdose", "result": "1 to 1.5", "unit": "h"}
    ]}
  ]
}
